Experimental data from US20160376659A1, “Breast Cancer Biomarker” (The University of Manchester, priority 2015, published 2016).
Entries after “also recorded” stand apart in the source; their conditions may differ.

Assays:
Notch1 = Notch1 activity in MCF7, MDA-MB-231 and BT474 cells; type: cell-based
Notch4 = Notch4 activity in MCF7, MDA-MB-231 and BT474 cells; type: cell-based

Compound | Notch1 activity (Notch1) | Notch4 activity (Notch4)
C[C@H](NC(=O)Cc1cc(F)cc(F)c1)C(=O)N[C@@H]1C(=O)N(C)c2ccccc2-c2ccccc21 [DBZ] | inhibit | no Notch4; also recorded: not NOTCH4 activity
C[C@H](NC(=O)Cc1cc(F)cc(F)c1)C(=O)N[C@H](C(=O)OC(C)(C)C)c1ccccc1 [DAPT] | inhibit | no Notch4; also recorded: not NOTCH4 activity
